Data from ChEMBL document CHEMBL4052776, “Discovery of 3-morpholino-imidazole[1,5-a]pyrazine BTK inhibitors for rheumatoid arthritis” (Bioorg Med Chem Lett, 2017).

Columns and labels:
[1] = target: Tyrosine-protein kinase Yes (Homo sapiens, UniProt P07947); assay: Inhibition of YES1 (unknown origin)
[2] = target: Receptor tyrosine-protein kinase erbB-4 (Homo sapiens, UniProt Q15303); assay: Inhibition of ERBB4 (unknown origin)
[3] = Total clearance in rat plasma at 10 mg/kg; format: ADME, organism-based
[4] = target: Proto-oncogene tyrosine-protein kinase Src (Homo sapiens, UniProt P12931); assay: Inhibition of SRC (unknown origin)
Chain of Proto-oncogene tyrosine-protein kinase Src (P12931 2-536 limits assumed): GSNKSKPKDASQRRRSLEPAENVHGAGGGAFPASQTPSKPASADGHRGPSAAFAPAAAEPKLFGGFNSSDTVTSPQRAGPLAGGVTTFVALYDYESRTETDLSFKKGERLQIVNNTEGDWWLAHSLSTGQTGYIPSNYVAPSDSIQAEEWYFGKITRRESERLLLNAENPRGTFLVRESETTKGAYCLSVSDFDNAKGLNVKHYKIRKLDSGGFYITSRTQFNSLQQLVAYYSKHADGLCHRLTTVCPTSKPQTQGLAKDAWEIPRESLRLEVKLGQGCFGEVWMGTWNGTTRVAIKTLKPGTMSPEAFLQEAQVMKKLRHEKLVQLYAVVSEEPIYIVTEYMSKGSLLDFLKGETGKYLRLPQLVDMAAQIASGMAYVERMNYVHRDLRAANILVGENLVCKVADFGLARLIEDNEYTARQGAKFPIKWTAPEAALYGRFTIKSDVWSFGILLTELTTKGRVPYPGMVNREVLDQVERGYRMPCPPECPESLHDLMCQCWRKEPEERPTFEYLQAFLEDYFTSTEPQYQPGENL

[5] = target: Tyrosine-protein kinase Lck (Homo sapiens, UniProt P06239); assay: Inhibition of LCK (unknown origin)
Chain of Tyrosine-protein kinase Lck (P06239 whole entry): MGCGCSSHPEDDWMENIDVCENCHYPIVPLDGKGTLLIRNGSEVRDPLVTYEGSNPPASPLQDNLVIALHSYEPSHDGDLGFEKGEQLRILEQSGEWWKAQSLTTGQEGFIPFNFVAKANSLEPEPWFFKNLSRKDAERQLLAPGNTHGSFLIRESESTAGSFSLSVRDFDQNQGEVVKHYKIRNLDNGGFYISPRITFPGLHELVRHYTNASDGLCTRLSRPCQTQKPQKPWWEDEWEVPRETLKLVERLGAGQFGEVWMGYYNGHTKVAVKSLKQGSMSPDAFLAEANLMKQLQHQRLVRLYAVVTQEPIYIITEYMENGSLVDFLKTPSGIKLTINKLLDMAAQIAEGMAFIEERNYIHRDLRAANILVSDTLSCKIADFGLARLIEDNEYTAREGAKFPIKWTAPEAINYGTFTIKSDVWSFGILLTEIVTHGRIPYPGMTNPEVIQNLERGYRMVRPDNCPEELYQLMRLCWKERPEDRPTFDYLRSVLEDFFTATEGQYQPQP

[6] = target: T1, Tyrosine-protein kinase TXK (Homo sapiens, UniProt P42681); assay: Inhibition of TXK (unknown origin)
T1 sequence (P42681 whole entry): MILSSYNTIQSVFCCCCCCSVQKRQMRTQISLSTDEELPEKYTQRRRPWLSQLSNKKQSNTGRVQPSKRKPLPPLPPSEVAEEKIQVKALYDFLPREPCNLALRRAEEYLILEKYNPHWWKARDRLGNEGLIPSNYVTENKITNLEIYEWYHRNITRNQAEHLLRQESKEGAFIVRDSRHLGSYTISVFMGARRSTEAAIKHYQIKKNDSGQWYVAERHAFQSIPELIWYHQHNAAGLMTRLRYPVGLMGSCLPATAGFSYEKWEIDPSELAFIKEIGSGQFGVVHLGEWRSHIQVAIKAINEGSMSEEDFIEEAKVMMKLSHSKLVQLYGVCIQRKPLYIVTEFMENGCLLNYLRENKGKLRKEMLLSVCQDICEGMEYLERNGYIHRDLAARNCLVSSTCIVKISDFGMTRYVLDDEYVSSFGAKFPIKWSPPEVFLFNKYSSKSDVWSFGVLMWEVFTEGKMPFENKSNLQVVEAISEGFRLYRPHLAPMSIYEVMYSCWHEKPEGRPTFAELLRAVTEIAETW

[7] = Oral bioavailability in rat at 10 mg/kg; format: ADME, organism-based; conditions: in vivo
[8] = target: Tyrosine-protein kinase Fyn (Homo sapiens, UniProt P06241); assay: Inhibition of FYN (unknown origin)
[9] = target: T2, Tyrosine-protein kinase BTK (Homo sapiens, UniProt Q06187); assay: Inhibition of BTK in human PBMC assessed as reduction in anti-IgM-induced MIP1beta
T2 sequence (Q06187 whole entry): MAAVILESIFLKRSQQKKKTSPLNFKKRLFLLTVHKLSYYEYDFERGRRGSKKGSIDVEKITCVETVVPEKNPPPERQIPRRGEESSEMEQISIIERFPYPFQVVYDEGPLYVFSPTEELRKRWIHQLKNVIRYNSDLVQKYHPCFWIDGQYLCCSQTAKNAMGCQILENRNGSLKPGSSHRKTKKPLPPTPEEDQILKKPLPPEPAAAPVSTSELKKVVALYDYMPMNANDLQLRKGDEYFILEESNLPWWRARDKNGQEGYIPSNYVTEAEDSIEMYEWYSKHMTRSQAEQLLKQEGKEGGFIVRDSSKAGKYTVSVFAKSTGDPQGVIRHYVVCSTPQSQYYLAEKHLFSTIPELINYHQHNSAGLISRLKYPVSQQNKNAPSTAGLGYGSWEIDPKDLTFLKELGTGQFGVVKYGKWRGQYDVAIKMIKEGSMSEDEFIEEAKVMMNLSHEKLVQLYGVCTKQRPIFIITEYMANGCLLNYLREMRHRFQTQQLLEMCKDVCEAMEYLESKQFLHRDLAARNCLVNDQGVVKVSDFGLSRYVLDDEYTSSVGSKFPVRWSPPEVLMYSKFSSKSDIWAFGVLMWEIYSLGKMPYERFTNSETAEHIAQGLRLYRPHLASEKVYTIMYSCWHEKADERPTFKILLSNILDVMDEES

[10] = target: T3, Cytoplasmic tyrosine-protein kinase BMX (Homo sapiens, UniProt P51813); assay: Inhibition of BMX (unknown origin)
T3 sequence (P51813 whole entry): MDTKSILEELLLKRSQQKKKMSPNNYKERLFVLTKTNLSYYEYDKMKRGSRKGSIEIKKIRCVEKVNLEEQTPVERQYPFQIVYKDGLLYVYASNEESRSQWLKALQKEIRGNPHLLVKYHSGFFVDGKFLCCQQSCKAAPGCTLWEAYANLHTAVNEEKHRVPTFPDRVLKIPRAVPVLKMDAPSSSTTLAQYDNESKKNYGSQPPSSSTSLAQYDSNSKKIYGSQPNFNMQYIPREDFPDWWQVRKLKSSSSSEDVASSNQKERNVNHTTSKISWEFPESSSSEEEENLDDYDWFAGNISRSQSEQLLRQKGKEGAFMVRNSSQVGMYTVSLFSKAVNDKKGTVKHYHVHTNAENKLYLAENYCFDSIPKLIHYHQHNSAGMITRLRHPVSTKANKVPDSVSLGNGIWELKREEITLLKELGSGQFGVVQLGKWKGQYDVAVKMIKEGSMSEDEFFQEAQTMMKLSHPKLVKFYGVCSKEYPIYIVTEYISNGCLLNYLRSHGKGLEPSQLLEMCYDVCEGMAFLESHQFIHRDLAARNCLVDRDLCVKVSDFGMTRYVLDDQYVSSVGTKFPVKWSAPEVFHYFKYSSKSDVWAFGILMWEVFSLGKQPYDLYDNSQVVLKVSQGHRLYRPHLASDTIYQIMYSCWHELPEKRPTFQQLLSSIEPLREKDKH

[11] = target: T2, Tyrosine-protein kinase BTK; assay: Inhibition of recombinant full-length His6-tagged BTK (unknown origin) expressed in baculovirus infected Sf9 cells using biotinylated A5 peptide as substrate preincubated for 60 mins followed by substrate addition measured after 120 mins by LANCE TR-FRET assay
[12] = target: Tyrosine-protein kinase Srms (Homo sapiens, UniProt Q9H3Y6); assay: Inhibition of SRMS (unknown origin)
Chain of Tyrosine-protein kinase Srms (Q9H3Y6 whole entry): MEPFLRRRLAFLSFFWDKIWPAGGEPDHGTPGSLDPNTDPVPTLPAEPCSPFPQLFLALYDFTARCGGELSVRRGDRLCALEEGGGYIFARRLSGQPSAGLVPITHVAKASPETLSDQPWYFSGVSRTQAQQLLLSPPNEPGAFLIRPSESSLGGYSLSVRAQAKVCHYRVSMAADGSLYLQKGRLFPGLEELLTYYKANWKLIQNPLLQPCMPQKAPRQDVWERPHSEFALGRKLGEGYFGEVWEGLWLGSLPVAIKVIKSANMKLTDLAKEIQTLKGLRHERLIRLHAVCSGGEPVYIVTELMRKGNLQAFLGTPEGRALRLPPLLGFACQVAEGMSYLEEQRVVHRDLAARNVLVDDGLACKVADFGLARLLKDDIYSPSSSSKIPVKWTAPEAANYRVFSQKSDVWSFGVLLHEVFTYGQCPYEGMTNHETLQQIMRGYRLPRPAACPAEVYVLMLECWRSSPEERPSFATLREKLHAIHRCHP

[13] = target: Tyrosine-protein kinase Fgr (Homo sapiens, UniProt P09769); assay: Inhibition of FGR (unknown origin)
Chain of Tyrosine-protein kinase Fgr (P09769 whole entry): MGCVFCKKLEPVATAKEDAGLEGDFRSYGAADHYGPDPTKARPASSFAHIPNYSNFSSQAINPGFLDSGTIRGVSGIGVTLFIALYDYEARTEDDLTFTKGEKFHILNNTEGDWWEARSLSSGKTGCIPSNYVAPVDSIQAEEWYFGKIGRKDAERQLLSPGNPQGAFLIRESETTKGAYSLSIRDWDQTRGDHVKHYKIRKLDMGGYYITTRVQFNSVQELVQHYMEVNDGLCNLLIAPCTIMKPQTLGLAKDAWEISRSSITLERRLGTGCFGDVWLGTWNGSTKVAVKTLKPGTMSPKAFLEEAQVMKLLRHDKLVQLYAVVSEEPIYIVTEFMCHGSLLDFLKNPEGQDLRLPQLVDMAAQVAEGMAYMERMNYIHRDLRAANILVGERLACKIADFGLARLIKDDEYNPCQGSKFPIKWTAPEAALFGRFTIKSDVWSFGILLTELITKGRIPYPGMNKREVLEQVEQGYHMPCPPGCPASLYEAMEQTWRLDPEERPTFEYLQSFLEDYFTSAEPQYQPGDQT

[14] = Half life in dog at 2 mg/kg administered as cassette dose; format: ADME, organism-based, Canis lupus familiaris; conditions: in vivo
[15] = target: Tyrosine-protein kinase CSK (Homo sapiens, UniProt P41240); assay: Inhibition of CSK (unknown origin)
[16] = Half life in rat at 10 mg/kg; format: ADME, organism-based; conditions: in vivo
[17] = target: Protein-tyrosine kinase 6 (Homo sapiens, UniProt Q13882); assay: Inhibition of PTK6 (unknown origin)
[18] = target: Tyrosine-protein kinase Lyn (Homo sapiens, UniProt P07948); assay: Inhibition of LYNB (unknown origin)
Chain of Tyrosine-protein kinase Lyn (P07948 whole entry): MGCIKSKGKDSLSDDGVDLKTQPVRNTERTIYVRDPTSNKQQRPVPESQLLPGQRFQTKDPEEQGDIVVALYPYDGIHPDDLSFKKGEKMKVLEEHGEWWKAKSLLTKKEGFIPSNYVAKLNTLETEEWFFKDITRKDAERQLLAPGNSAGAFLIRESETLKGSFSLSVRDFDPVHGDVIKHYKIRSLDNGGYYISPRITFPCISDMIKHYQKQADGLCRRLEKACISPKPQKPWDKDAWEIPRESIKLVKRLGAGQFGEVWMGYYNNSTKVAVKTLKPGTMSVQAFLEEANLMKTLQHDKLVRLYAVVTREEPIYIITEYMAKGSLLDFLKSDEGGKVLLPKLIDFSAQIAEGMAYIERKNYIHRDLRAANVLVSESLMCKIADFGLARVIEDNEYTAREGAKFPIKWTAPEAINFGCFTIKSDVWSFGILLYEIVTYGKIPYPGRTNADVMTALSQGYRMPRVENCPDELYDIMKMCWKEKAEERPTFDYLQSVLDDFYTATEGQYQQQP

[19] = target: Tyrosine-protein kinase FRK (Homo sapiens, UniProt P42685); assay: Inhibition of FRK (unknown origin)
Chain of Tyrosine-protein kinase FRK (P42685 whole entry): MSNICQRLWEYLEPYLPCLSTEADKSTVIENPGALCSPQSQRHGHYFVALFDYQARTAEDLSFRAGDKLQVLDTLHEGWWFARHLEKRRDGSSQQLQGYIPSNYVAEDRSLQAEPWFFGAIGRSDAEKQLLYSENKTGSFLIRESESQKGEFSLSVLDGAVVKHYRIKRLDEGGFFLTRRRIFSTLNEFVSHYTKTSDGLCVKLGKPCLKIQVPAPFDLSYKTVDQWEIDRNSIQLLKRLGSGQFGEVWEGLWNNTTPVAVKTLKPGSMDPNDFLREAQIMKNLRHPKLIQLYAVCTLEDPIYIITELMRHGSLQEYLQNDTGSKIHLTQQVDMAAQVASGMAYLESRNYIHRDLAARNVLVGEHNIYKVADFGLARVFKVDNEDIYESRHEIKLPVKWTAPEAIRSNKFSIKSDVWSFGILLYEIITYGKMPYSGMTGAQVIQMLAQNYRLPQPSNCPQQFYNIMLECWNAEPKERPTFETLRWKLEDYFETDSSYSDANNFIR

[20] = target: Tyrosine-protein kinase Blk (Homo sapiens, UniProt P51451); assay: Inhibition of BLK (unknown origin)
[21] = target: T4, Tyrosine-protein kinase Tec (Homo sapiens, UniProt P42680); assay: Inhibition of TEC (unknown origin)
T4 sequence (P42680 whole entry): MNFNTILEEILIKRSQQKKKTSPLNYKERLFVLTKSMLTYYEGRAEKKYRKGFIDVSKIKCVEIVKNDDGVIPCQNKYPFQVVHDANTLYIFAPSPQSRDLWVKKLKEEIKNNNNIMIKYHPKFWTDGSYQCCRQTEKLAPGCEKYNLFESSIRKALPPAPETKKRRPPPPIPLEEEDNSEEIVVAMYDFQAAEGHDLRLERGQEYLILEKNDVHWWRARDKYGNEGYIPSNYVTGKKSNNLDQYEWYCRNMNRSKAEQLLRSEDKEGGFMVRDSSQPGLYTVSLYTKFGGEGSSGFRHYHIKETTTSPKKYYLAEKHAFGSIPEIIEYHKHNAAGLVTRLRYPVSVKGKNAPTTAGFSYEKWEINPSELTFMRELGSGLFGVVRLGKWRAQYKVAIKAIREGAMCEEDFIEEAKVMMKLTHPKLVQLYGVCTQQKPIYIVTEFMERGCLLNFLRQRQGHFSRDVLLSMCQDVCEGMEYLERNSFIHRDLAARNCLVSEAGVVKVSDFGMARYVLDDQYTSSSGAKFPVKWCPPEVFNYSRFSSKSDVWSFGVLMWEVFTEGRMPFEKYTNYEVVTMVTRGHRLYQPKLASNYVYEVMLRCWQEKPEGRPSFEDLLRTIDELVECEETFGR

[22] = Total clearance in dog plasma at 2 mg/kg administered as cassette dose; format: ADME, organism-based, Canis lupus familiaris
[23] = Oral bioavailability in dog at 2 mg/kg; format: ADME, organism-based, Canis lupus familiaris; conditions: in vivo
[24] = Total clearance in dog plasma at 2 mg/kg; format: ADME, organism-based, Canis lupus familiaris
[25] = Half life in dog at 2 mg/kg; format: ADME, organism-based, Canis lupus familiaris; conditions: in vivo
Homo sapiens [26] = organism: Homo sapiens; assay: Selectivity ratio of IC50 for FYN (unknown origin) to IC50 for BTK (unknown origin)
Homo sapiens [27] = organism: Homo sapiens; assay: Selectivity ratio of IC50 for TXK (unknown origin) to IC50 for BTK (unknown origin)
Homo sapiens [28] = organism: Homo sapiens; assay: Selectivity ratio of IC50 for FRK (unknown origin) to IC50 for BTK (unknown origin)
Homo sapiens [29] = organism: Homo sapiens; assay: Selectivity ratio of IC50 for YES1 (unknown origin) to IC50 for BTK (unknown origin)
Homo sapiens [30] = organism: Homo sapiens; assay: Selectivity ratio of IC50 for TEC (unknown origin) to IC50 for BTK (unknown origin)
Homo sapiens [31] = organism: Homo sapiens; assay: Selectivity ratio of IC50 for SRC (unknown origin) to IC50 for BTK (unknown origin)
Homo sapiens [32] = organism: Homo sapiens; assay: Selectivity ratio of IC50 for PTK6 (unknown origin) to IC50 for BTK (unknown origin)
Homo sapiens [33] = organism: Homo sapiens; assay: Selectivity ratio of IC50 for FGR (unknown origin) to IC50 for BTK (unknown origin)
Homo sapiens [34] = organism: Homo sapiens; assay: Selectivity ratio of IC50 for BLK (unknown origin) to IC50 for BTK (unknown origin)
Homo sapiens [35] = organism: Homo sapiens; assay: Selectivity ratio of IC50 for BMX (unknown origin) to IC50 for BTK (unknown origin)
Homo sapiens [36] = organism: Homo sapiens; assay: Selectivity ratio of IC50 for LCK (unknown origin) to IC50 for BTK (unknown origin)
Homo sapiens [37] = organism: Homo sapiens; assay: Selectivity ratio of IC50 for SRMS (unknown origin) to IC50 for BTK (unknown origin)
Homo sapiens [38] = organism: Homo sapiens; assay: Selectivity ratio of IC50 for LYNB (unknown origin) to IC50 for BTK (unknown origin)
Homo sapiens [39] = organism: Homo sapiens; assay: Selectivity ratio of IC50 for CSK (unknown origin) to IC50 for BTK (unknown origin)
[40] = target: Voltage-gated inwardly rectifying potassium channel KCNH2 (Homo sapiens, UniProt Q12809); assay: Inhibition of human ERG by [35S]-MK499 displacement or iKr channel assay
Homo sapiens [41] = organism: Homo sapiens; assay: Selectivity ratio of IC50 for ERBB4 (unknown origin) to IC50 for BTK (unknown origin)

Chain of Receptor tyrosine-protein kinase erbB-4 (Q15303 whole entry): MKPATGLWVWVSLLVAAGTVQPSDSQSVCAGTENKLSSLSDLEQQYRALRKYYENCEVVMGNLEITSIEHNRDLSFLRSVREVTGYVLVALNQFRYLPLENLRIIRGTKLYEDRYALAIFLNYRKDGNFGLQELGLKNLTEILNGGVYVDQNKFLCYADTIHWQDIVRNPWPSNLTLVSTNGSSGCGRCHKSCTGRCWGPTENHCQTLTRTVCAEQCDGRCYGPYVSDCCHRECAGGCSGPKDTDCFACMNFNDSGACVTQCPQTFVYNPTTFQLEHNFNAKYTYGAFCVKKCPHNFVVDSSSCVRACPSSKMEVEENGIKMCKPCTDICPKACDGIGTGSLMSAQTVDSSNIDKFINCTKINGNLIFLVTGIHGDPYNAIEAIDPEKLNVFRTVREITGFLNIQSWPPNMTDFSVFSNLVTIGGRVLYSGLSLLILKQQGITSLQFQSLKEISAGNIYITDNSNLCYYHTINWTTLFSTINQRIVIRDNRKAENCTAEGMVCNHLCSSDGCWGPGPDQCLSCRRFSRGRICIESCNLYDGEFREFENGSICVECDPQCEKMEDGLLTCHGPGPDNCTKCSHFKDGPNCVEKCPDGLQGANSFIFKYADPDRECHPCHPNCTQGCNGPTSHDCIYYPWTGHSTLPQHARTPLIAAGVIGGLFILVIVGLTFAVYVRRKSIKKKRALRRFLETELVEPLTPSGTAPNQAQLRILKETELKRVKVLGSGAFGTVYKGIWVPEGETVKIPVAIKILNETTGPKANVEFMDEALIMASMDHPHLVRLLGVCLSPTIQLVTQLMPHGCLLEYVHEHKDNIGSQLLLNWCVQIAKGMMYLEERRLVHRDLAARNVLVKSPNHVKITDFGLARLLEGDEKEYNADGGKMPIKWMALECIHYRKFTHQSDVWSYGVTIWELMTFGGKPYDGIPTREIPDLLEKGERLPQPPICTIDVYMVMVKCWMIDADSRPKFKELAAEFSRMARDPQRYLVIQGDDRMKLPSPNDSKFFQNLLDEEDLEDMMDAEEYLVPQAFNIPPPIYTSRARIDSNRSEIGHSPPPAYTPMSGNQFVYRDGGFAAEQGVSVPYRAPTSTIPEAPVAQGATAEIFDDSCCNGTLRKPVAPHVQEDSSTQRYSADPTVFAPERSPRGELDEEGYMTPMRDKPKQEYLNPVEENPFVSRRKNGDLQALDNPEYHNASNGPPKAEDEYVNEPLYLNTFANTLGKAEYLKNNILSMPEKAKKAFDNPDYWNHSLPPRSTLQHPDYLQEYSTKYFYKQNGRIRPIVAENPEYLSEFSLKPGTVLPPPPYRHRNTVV

SMILES	IC50 [1] [nM]	IC50 [2] [nM]	clearance [3] [mL/min/kg]	IC50 [4] [nM]	IC50 [5] [nM]	IC50 [6] [nM]	bioavailability [7] [%]	IC50 [8] [nM]	IC50 [9] [nM]	IC50 [10] [nM]	IC50 [11] [nM]	IC50 [12] [nM]	IC50 [13] [nM]	IC50 [15] [nM]	half-life [16] [h]	IC50 [17] [nM]	IC50 [18] [nM]	IC50 [19] [nM]	IC50 [20] [nM]	IC50 [21] [nM]	other results
Nc1nccn2c([C@H]3CN(C4CCOCC4)CCO3)nc(-c3ccc(C(=O)Nc4cc(C(F)(F)F)ccn4)cc3F)c12	60	76	23	112	21	282	75	248	13	200	0.59 to 0.6	65	39	665	1.1	113	399	132	50	191	half-life [14]: 3.1 h; clearance [22]: 5.9 mL/min/kg
C[C@H]1CO[C@@H](c2nc(-c3ccc(C(=O)Nc4cc(C(F)(F)F)ccn4)cc3F)c3c(N)nccn23)CN1C(=O)C1CC1			4.2				40								3.9						bioavailability [23]: 88%; clearance [24]: 1.6 mL/min/kg; half-life [25]: 8.8 h
COCC(=O)N1CCC[C@@H](c2nc(-c3ccc(C(=O)Nc4cc(C(F)(F)F)ccn4)cc3F)c3c(N)nccn23)C1	37	71		55	11	45		188	13	20	0.2 to 0.22	19	28	261		60	74	151	9	63	Ratio IC50 (Homo sapiens [26]): 853; Ratio IC50 (Homo sapiens [27]): 203; Ratio IC50 (Homo sapiens [28]): 687; Ratio IC50 (Homo sapiens [29]): 167; Ratio IC50 (Homo sapiens [30]): 287; Ratio IC50 (Homo sapiens [31]): 251; Ratio IC50 (Homo sapiens [32]): 273; Ratio IC50 (Homo sapiens [33]): 127; Ratio IC50 (Homo sapiens [34]): 39; Ratio IC50 (Homo sapiens [35]): 93; Ratio IC50 (Homo sapiens [36]): 51; Ratio IC50 (Homo sapiens [37]): 86; Ratio IC50 (Homo sapiens [38]): 335; Ratio IC50 (Homo sapiens [39]): 1180; IC50 [40]: 4500 nM; Ratio IC50 (Homo sapiens [41]): 322
CC(C)C(=O)N1CCC[C@@H](c2nc(-c3ccc(C(=O)Nc4cc(C(F)(F)F)ccn4)cc3F)c3c(N)nccn23)C1	189	230		265	74	132		894	5	83	0.25 to 0.3	84	203	1150		350	646	472	53	378	
Nc1nccn2c([C@@H]3CCCN(C4CCOCC4)C3)nc(-c3ccc(C(=O)Nc4cc(C(F)(F)F)ccn4)cc3F)c12	32	59		77	7	231		105	65	127	0.8 to 0.83	50	22	455		48	115	85	29	170	Ratio IC50 (Homo sapiens [26]): 127; Ratio IC50 (Homo sapiens [27]): 278; Ratio IC50 (Homo sapiens [28]): 102; Ratio IC50 (Homo sapiens [29]): 38; Ratio IC50 (Homo sapiens [30]): 205; Ratio IC50 (Homo sapiens [31]): 93; Ratio IC50 (Homo sapiens [32]): 58; Ratio IC50 (Homo sapiens [33]): 26; Ratio IC50 (Homo sapiens [34]): 35; Ratio IC50 (Homo sapiens [35]): 153; Ratio IC50 (Homo sapiens [36]): 9; Ratio IC50 (Homo sapiens [37]): 60; Ratio IC50 (Homo sapiens [38]): 138; Ratio IC50 (Homo sapiens [39]): 548; IC50 [40]: 100 nM; Ratio IC50 (Homo sapiens [41]): 71
COCC(=O)N1CCO[C@@H](c2nc(-c3ccc(C(=O)Nc4cc(C(F)(F)F)ccn4)cc3F)c3c(N)nccn23)C1	73	169	8.2	123	28	256	42	571	14	331	0.37 to 0.4	76	69	626	0.8	77	268	214	78	232	Ratio IC50 (Homo sapiens [26]): 1540; Ratio IC50 (Homo sapiens [27]): 691; Ratio IC50 (Homo sapiens [28]): 578; Ratio IC50 (Homo sapiens [29]): 198; Ratio IC50 (Homo sapiens [30]): 626; half-life [14]: 2.5 h; Ratio IC50 (Homo sapiens [31]): 333; Ratio IC50 (Homo sapiens [32]): 209; Ratio IC50 (Homo sapiens [33]): 187; Ratio IC50 (Homo sapiens [34]): 212; Ratio IC50 (Homo sapiens [35]): 895; Ratio IC50 (Homo sapiens [36]): 75; Ratio IC50 (Homo sapiens [37]): 205; Ratio IC50 (Homo sapiens [38]): 723; Ratio IC50 (Homo sapiens [39]): 2230; IC50 [40]: 24000 nM; Ratio IC50 (Homo sapiens [41]): 457; clearance [22]: 13.8 mL/min/kg
